# Results taken from patent publication US9463251B2, “Anti-ETBR antibodies and immunoconjugates” (Genentech, Inc., priority 2012, dated 2016).
# Starred links: 1 amine or outer side, 2 acyl side, 3 side chain; linkers in the order of their positions; H or OH if unused. Non-standard residues stand in square brackets, D forms with d. Residues, ends and D or L forms follow the SMILES beside them. *: point of attachment. Dolaproine = CO[C@@H]([C@@H]1CCCN1)[C@@H](C)C(=O)O; Hexanoyl(6-maleimido) = O=C1C=CC(=O)N1CCCCCC(=O)*; Dil = CC[C@H](C)[C@H](NC)[C@@H](CC(=O)O)OC; PABC = O=C(OCc1ccc(N[*:1])cc1)[*:2]; X1 = C[C@@H](N*)[C@@H](O)c1ccccc1; Cit = NC(=O)NCCC[C@H](N)C(=O)O; NMeV = CN[C@H](C(=O)O)C(C)C
# Assays:
# Assay type in all cases: cell-based
# Conditions in all cases: five days, read-out: EC50 (free linker-drug, without antibody)
# [1] = system: In vitro-derived resistant UACC-257X2.2 cells; assay: In vitro cell proliferation (CellTiter-Glo), in vitro-derived resistant cells
# Procedure: For resistance developed in vitro, UACC-257X2.2 cells were adapted to increasing concentrations of anti-ETBR-vc-MMAE in culture dishes over the course of two months.
# (§1) In vivo- and in vitro-derived resistant UACC-257X2.2 cells were then assayed for sensitivity to increasing concentrations of anti-ETBR-vc-MMAE.
# (§2) In vitro cell proliferation of the cell lines in the presence of the immunoconjugates was assessed. Cells were plated at 1,500 cells per well in 50 μL of normal growth medium in 96-well clear-bottom plates. Twenty-four hours later, an additional 50 μL of culture medium with serial dilutions of immunoconjugates (ch5E9-vc-MMAE or control anti-gD-vc-MMAE) were added to triplicate wells. Five days later, cell survival was determined using CellTiter-Glo Luminescent Cell Viability Reagent (G7572, Promega Corporation, Madison, Wis.) using an EnVision 2101 Mutilabel Reader (Perkin-Elmer, Waltham, Mass.).
# [2] = system: In vivo-derived resistant UACC-257X2.2 cells; assay: In vitro cell proliferation (CellTiter-Glo), in vivo-derived resistant cells
# Procedure: Tumor #359 was harvested and the cells were dissociated for growth in vitro (referred to herein as in vivo-derived resistant UACC-257X2.2 cells).
# as §1, §2
# [3] = system: Parental UACC-257X2.2 cells; assay: In vitro cell proliferation (CellTiter-Glo), parental cells
# Procedure: as §2
smiles,measurement,setting,value
CC[C@H](C)[C@@H]([C@@H](CC(=O)N1CCC[C@H]1[C@H](OC)[C@@H](C)C(=O)N[C@H](C)[C@@H](O)c1ccccc1)OC)N(C)C(=O)[C@@H](NC(=O)[C@H](C(C)C)N(C)C(=O)OCc1ccc(NC(=O)[C@H](CCCNC(N)=O)NC(=O)[C@@H](NC(=O)CCCCCN2C(=O)C=CC2=O)C(C)C)cc1)C(C)C [MC-vc-PAB-MMAE] ({Hexanoyl(6-maleimido)}-V[Cit][PABC][NMeV]V[Dil][Dolaproine]-X1),EC50,[1],3.5 nM
same,EC50,[2],0.77 nM
same,EC50,[3],0.28 nM
